In PubChem BioAssay AID1963445 (Molecular Pharmacology Branch, DTP, NCI, 2024):

Tested on: MCF7 complex spheroid growth, % test/control
Test: Anticancer human tumor MCF7 cell line growth inhibition [Asc];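 note: spheroids exposed to compounds for 7 days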;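 for viability, T/C: 100% = DMSO vehicle control wells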
Conditions: for viability, T/C: stronger effect = lower value
In short: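 Spheroid model: tumor line + HUVEC + hMSC. Single agents and combinations; top conc. at/near clinical Cmax (10 microM if undetermined), half-log dilutions. DMSO stocks at 800-fold test concentration.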

[1] = curve of first compound, second compound 0.0316 µM
[2] = curve of first compound, second compound 0.1 µM
[3] = curve of first compound, second compound 0.316 µM
[4] = curve of first compound, second compound 1 µM
[5] = second compound 0.0316 µM, first compound 0.00316 µM
[6] = second compound 0.0316 µM, first compound 0.01 µM
[7] = second compound 0.0316 µM, first compound 0.0316 µM
[8] = second compound 0.0316 µM, first compound 0.1 µM
[9] = second compound 0.0316 µM, first compound 0.316 µM
[10] = second compound 0.0316 µM, first compound 1 µM
[11] = second compound 0.1 µM, first compound 0.00316 µM
[12] = second compound 0.1 µM, first compound 0.01 µM
[13] = second compound 0.1 µM, first compound 0.0316 µM
[14] = second compound 0.1 µM, first compound 0.1 µM
[15] = second compound 0.1 µM, first compound 0.316 µM
[16] = second compound 0.1 µM, first compound 1 µM
[17] = second compound 0.316 µM, first compound 0.00316 µM
[18] = second compound 0.316 µM, first compound 0.01 µM
[19] = second compound 0.316 µM, first compound 0.0316 µM
[20] = second compound 0.316 µM, first compound 0.1 µM
[21] = second compound 0.316 µM, first compound 0.316 µM
[22] = second compound 0.316 µM, first compound 1 µM
[23] = second compound 1 µM, first compound 0.00316 µM
[24] = second compound 1 µM, first compound 0.01 µM
[25] = second compound 1 µM, first compound 0.0316 µM
[26] = second compound 1 µM, first compound 0.1 µM
[27] = second compound 1 µM, first compound 0.316 µM
[28] = second compound 1 µM, first compound 1 µM

In the case of `CNC(C)C(=O)NC1CN(S(=O)(=O)c2cccc(S(=O)(=O)N3CCC4CCC(C(=O)NC(c5ccccc5)c5ccccc5)N4C(=O)C(NC(=O)C(C)NC)C3)c2)CCC2CCC(C(=O)NC(c3ccccc3)c3ccccc3)N2C1=O` (centres undefined) + CCN1C(C(=O)NC23CCC(C(=O)O)(CC2)CC3)C(c2cccc(Cl)c2F)C2(C(=O)Nc3cc(Cl)ccc32)C12CCCCC2, the IC50 (curve of first compound, second compound 0.00949 µM) is reported as 4.89 nM, the IC50 (curve of first compound, second compound 0.03 µM) is reported as 4.19 nM and the IC50 (curve of first compound, second compound 0.0949 µM) is reported as < 3.16 nM. For the same compound, the IC50 (curve of first compound, second compound 0.3 µM) was < 3.16 nM, the IC50 (curve of first compound, second compound 0.949 µM) was < 3.16 nM and the IC50 (curve of first compound, second compound 3 µM) was < 3.16 nM. For the same compound, the viability, T/C (second compound 0.00949 µM, first compound 0.00316 µM) was 69.8%, the viability, T/C (second compound 0.00949 µM, first compound 0.01 µM) was 17.4% and the viability, T/C (second compound 0.00949 µM, first compound 0.0316 µM) was 16.6%. It also gave a viability, T/C (second compound 0.00949 µM, first compound 0.1 µM) of 14.7%, a viability, T/C (second compound 0.00949 µM, first compound 0.316 µM) of 17.1% and a viability, T/C (second compound 0.00949 µM, first compound 1 µM) of 15.5%. It also gave a viability, T/C (second compound 0.03 µM, first compound 0.00316 µM) of 61.2%, a viability, T/C (second compound 0.03 µM, first compound 0.01 µM) of 13.8% and a viability, T/C (second compound 0.03 µM, first compound 0.0316 µM) of 13.1%. The viability, T/C (second compound 0.03 µM, first compound 0.1 µM) was 19%, the viability, T/C (second compound 0.03 µM, first compound 0.316 µM) was 15.5% and the viability, T/C (second compound 0.03 µM, first compound 1 µM) was 15.8%. It also gave a viability, T/C (second compound 0.0949 µM, first compound 0.00316 µM) of 32.7%, a viability, T/C (second compound 0.0949 µM, first compound 0.01 µM) of 8.77% and a viability, T/C (second compound 0.0949 µM, first compound 0.0316 µM) of 9.56%. The viability, T/C (second compound 0.0949 µM, first compound 0.1 µM) was 11.9%, the viability, T/C (second compound 0.0949 µM, first compound 0.316 µM) was 11.5% and the viability, T/C (second compound 0.0949 µM, first compound 1 µM) was 16%. The viability, T/C (second compound 0.3 µM, first compound 0.00316 µM) was 15.1%, the viability, T/C (second compound 0.3 µM, first compound 0.01 µM) was 8.53% and the viability, T/C (second compound 0.3 µM, first compound 0.0316 µM) was 9.64%. For the same compound, the viability, T/C (second compound 0.3 µM, first compound 0.1 µM) was 9.86%, the viability, T/C (second compound 0.3 µM, first compound 0.316 µM) was 11% and the viability, T/C (second compound 0.3 µM, first compound 1 µM) was 12.2%. It also gave a viability, T/C (second compound 0.949 µM, first compound 0.00316 µM) of 10.9%, a viability, T/C (second compound 0.949 µM, first compound 0.01 µM) of 10% and a viability, T/C (second compound 0.949 µM, first compound 0.0316 µM) of 7.29%. It also gave a viability, T/C (second compound 0.949 µM, first compound 0.1 µM) of 8.83%, a viability, T/C (second compound 0.949 µM, first compound 0.316 µM) of 10.5% and a viability, T/C (second compound 0.949 µM, first compound 1 µM) of 12%. For the same compound, the viability, T/C (second compound 3 µM, first compound 0.00316 µM) was 11.6%, the viability, T/C (second compound 3 µM, first compound 0.01 µM) was 9.65% and the viability, T/C (second compound 3 µM, first compound 0.0316 µM) was 9.98%. It also gave a viability, T/C (second compound 3 µM, first compound 0.1 µM) of 9.21%, a viability, T/C (second compound 3 µM, first compound 0.316 µM) of 12.1% and a viability, T/C (second compound 3 µM, first compound 1 µM) of 12.5%.
With `Cc1c(S(C)(=O)=O)c(-c2cc(F)cc(N3CCN(c4ccc(NS(=O)(=O)c5ccc(NC(CCN6CCC(C(=O)OCCCP(=O)(O)O)CC6)CSc6ccccc6)c(S(=O)(=O)C(F)(F)F)c5)cc4)CC3)c2)c(-c2ccc(Cl)cc2)n1C(C)C` (centres undefined) the viability, T/C (compound 0.0316 µM) was 90.5% [middle of 7 runs], the viability, T/C (compound 10 µM) was 166% [middle of 7 runs] and the IC50 (compound alone, run of 11/07/2022) was > 10000 nM.
In the case of `CCN1CCN(Cc2ccc(Nc3ncc(F)c(-c4cc(F)c5nc(C)n(C(C)C)c5c4)n3)nc2)CC1` + CNC(C)C(=O)NC1CN(S(=O)(=O)c2cccc(S(=O)(=O)N3CCC4CCC(C(=O)NC(c5ccccc5)c5ccccc5)N4C(=O)C(NC(=O)C(C)NC)C3)c2)CCC2CCC(C(=O)NC(c3ccccc3)c3ccccc3)N2C1=O, the IC50 (curve of first compound, second compound 0.00316 µM) is reported as < 3.16 nM, the IC50 (curve of first compound, second compound 0.01 µM) is reported as < 3.16 nM and the IC50 [1] is reported as < 3.16 nM. For the same compound, the IC50 [2] was < 3.16 nM, the IC50 [3] was < 3.16 nM and the IC50 [4] was < 3.16 nM. For the same compound, the viability, T/C (second compound 0.00316 µM, first compound 0.00316 µM) was 30.3%, the viability, T/C (second compound 0.00316 µM, first compound 0.01 µM) was 32.9% and the viability, T/C (second compound 0.00316 µM, first compound 0.0316 µM) was 12.9%. It also gave a viability, T/C (second compound 0.00316 µM, first compound 0.1 µM) of 20.2%, a viability, T/C (second compound 0.00316 µM, first compound 0.316 µM) of 12.3% and a viability, T/C (second compound 0.00316 µM, first compound 1 µM) of 14.1%. For the same compound, the viability, T/C (second compound 0.01 µM, first compound 0.00316 µM) was 17.1%, the viability, T/C (second compound 0.01 µM, first compound 0.01 µM) was 10.8% and the viability, T/C (second compound 0.01 µM, first compound 0.0316 µM) was 10.1%. The viability, T/C (second compound 0.01 µM, first compound 0.1 µM) was 10.1%, the viability, T/C (second compound 0.01 µM, first compound 0.316 µM) was 10.5% and the viability, T/C (second compound 0.01 µM, first compound 1 µM) was 11.8%. It also gave a viability, T/C [5] of 14.4%, a viability, T/C [6] of 9.49% and a viability, T/C [7] of 9.67%. For the same compound, the viability, T/C [8] was 11.8%, the viability, T/C [9] was 11.1% and the viability, T/C [10] was 10.6%. For the same compound, the viability, T/C [11] was 12.2%, the viability, T/C [12] was 10.9% and the viability, T/C [13] was 10.2%. For the same compound, the viability, T/C [14] was 8.76%, the viability, T/C [15] was 11.4% and the viability, T/C [16] was 10%. The viability, T/C [17] was 13.4%, the viability, T/C [18] was 13.1% and the viability, T/C [19] was 13.2%. The viability, T/C [20] was 11.2%, the viability, T/C [21] was 8.8% and the viability, T/C [22] was 8.66%. It also gave a viability, T/C [23] of 10.8%, a viability, T/C [24] of 12% and a viability, T/C [25] of 11.3%. The viability, T/C [26] was 10.8%, the viability, T/C [27] was 10.7% and the viability, T/C [28] was 8.18%.
`CNC(C)C(=O)NC1CN(S(=O)(=O)c2cccc(S(=O)(=O)N3CCC4CCC(C(=O)NC(c5ccccc5)c5ccccc5)N4C(=O)C(NC(=O)C(C)NC)C3)c2)CCC2CCC(C(=O)NC(c3ccccc3)c3ccccc3)N2C1=O` (centres undefined) + Cc1c(S(C)(=O)=O)c(-c2cc(F)cc(N3CCN(c4ccc(NS(=O)(=O)c5ccc(NC(CCN6CCC(C(=O)OCCCP(=O)(O)O)CC6)CSc6ccccc6)c(S(=O)(=O)C(F)(F)F)c5)cc4)CC3)c2)c(-c2ccc(Cl)cc2)n1C(C)C was tested, and the IC50 [1] was 5.15 nM, the IC50 [2] was 6.44 nM and the IC50 [3] was 4.92 nM. The IC50 [4] was 5.56 nM, the IC50 (curve of first compound, second compound 3.16 µM) was < 3.16 nM and the IC50 (curve of first compound, second compound 10 µM) was 4.17 nM. For the same compound, the viability, T/C [5] was 73.3%, the viability, T/C [6] was 17.6% and the viability, T/C [7] was 15.6%. It also gave a viability, T/C [8] of 18.6%, a viability, T/C [9] of 16.3% and a viability, T/C [10] of 20.2%. It also gave a viability, T/C [11] of 96.3%, a viability, T/C [12] of 21.4% and a viability, T/C [13] of 17.3%. It also gave a viability, T/C [14] of 17%, a viability, T/C [15] of 17.7% and a viability, T/C [16] of 16.9%. The viability, T/C [17] was 65.9%, the viability, T/C [18] was 25.1% and the viability, T/C [19] was 16.4%. It also gave a viability, T/C [20] of 19%, a viability, T/C [21] of 19.2% and a viability, T/C [22] of 18.8%. For the same compound, the viability, T/C [23] was 78.9%, the viability, T/C [24] was 20% and the viability, T/C [25] was 18.6%. It also gave a viability, T/C [26] of 19.8%, a viability, T/C [27] of 17.4% and a viability, T/C [28] of 15.9%. The viability, T/C (second compound 3.16 µM, first compound 0.00316 µM) was 37%, the viability, T/C (second compound 3.16 µM, first compound 0.01 µM) was 19.1% and the viability, T/C (second compound 3.16 µM, first compound 0.0316 µM) was 18.3%. It also gave a viability, T/C (second compound 3.16 µM, first compound 0.1 µM) of 22.8%, a viability, T/C (second compound 3.16 µM, first compound 0.316 µM) of 20.4% and a viability, T/C (second compound 3.16 µM, first compound 1 µM) of 20.1%. The viability, T/C (second compound 10 µM, first compound 0.00316 µM) was 56%, the viability, T/C (second compound 10 µM, first compound 0.01 µM) was 31.6% and the viability, T/C (second compound 10 µM, first compound 0.0316 µM) was 23.8%. For the same compound, the viability, T/C (second compound 10 µM, first compound 0.1 µM) was 21.7%, the viability, T/C (second compound 10 µM, first compound 0.316 µM) was 21.5% and the viability, T/C (second compound 10 µM, first compound 1 µM) was 24%.
